Values of other authors in patent US9173863B2, “Antiviral compound and COX-2 inhibitor combination therapy for functional somatic syndromes, including combination of famciclovir and celecoxib” (INNOVATIVE MED CONCEPTS, LLC, priority 2012, dated 2015).

Test system: fibromyalgia patients
Conditions: valacyclovir alone

CC(C)[C@H](N)C(=O)OCCOCn1cnc2c(=O)[nH]c(N)nc21 [valacyclovir]
Treatment outcome in fibromyalgia patients: not successful
